Measured values from patent US8362000B2, “Azetidinyl diamides as monoacylglycerol lipase inhibitors” (Janssen Pharmaceutica NV, priority 2009, dated 2013).
Residue numbers refer to the chain shown, from its start. Like-named read-outs stand apart in the source and are kept apart here.

Experiments:
[1] = target: T1, MGL (Rattus norvegicus, UniProt Q8R431); assay: 2-AG accumulation assay in rat brain homogenate; format: biochemical; details: rat brain homogenate, 2-AG accumulation as percent of vehicle; for 2-AG accumulation, % of vehicle control at 1 µM: compound 1 μM, read-out: Rat Brain 2AG % VehCntrl (%) @ 1 μM
T1 construct: one g rat brain was homogenized using a Polytron homogenizer; from tissue; host or cells: rat brain homogenate
T1 sequence (Q8R431 1-303): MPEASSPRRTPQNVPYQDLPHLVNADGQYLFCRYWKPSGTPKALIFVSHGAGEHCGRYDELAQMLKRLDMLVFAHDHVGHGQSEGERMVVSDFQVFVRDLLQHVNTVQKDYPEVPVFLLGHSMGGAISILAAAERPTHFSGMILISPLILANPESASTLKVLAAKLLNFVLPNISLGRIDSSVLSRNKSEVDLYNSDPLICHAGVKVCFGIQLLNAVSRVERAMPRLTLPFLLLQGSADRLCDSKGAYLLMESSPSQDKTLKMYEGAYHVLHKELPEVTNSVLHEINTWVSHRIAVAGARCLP

[2] = target: T2, mutant MGL (Homo sapiens, UniProt Q99685, L169S/L176S); assay: MGL ThermoFluor assay - mutant; format: binding
T2 sequence (Q99685 1-303 L169S/L176S): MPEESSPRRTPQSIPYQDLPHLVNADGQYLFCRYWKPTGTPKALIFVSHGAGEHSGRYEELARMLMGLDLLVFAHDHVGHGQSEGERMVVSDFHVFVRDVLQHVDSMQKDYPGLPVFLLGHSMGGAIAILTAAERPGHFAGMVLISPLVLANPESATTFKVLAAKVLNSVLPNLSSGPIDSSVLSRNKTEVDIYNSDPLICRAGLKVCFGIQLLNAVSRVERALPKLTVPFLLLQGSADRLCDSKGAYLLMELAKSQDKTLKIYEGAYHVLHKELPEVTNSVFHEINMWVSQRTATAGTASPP

[3] = target: T3, purified wild type MGL (wt-MGLL 6H-11-313) (Homo sapiens, UniProt Q99685)
T3 sequence (Q99685 1-303): T2 sequence (Q99685 1-303 L169S/L176S) with S169L, S176L

[4] = ThermoFluor concentration-response, read-out: MGL mutant ThermoFluor Kd
[5] = ThermoFluor, compound concentration measured by qNMR, read-out: MGL mutant ThermoFluor qKd (using qNMR conc.)
[6] = compound concentration measured by qNMR, read-out: MGL mutant ThermoFluor qKd (using qNMR conc.)
[7] = ThermoFluor thermal stability binding assay, read-out: MGL mutant ThermoFluor Kd

2-AG accumulation, % of vehicle control at 1 µM [1] [%]	Kd [2, 4] [µM]	IC50 [3] [nM]	Kd [2, 5] [µM]	Kd ([2]; ThermoFluor, compound concentration measured by qNMR, read-out: MGL mutant ThermoFluor qKd (μM) (using qNMR conc.)) [µM]	Kd [2, 6] [µM]	Kd [2, 7] [µM]	2-AG accumulation, % of vehicle control at 0.1 µM ([1]; compound 0.1 μM, read-out: Rat Brain 2AG % VehCntrl (%) @ 0.1 μM) [%]	Structure (SMILES)
840	0.004	46						Cc1ccc2sc(C(=O)N3CC(N4CCN(C(=O)c5nccs5)CC4)C3)c(C(F)(F)F)c2c1 [Cpd 691, 1-(1-{[5-Methyl-3-(trifluoromethyl)-1-benzothiophen-2-yl]carbonyl}azetidin-3-yl)-4-(1,3-thiazol-2-ylcarbonyl)piperazine]
299	0.06	47						O=C(c1ccc(OC(F)(F)F)c(Cl)c1)N1CC(N2CCN(C(=O)c3nccs3)CC2)C1 [Cpd 693]
497	0.001	57						O=C(c1nccs1)N1CCN(C2CN(C(=O)c3sc4cc(F)ccc4c3C3CCC3)C2)CC1 [Cpd 695]
444		59	0.063					Cc1c(C(=O)N2CC(N3CCN(C(=O)c4nccs4)CC3)C2)n(C)c2ccc(Cl)cc12 [Cpd 696]
431		62		0.024				O=C(c1cscn1)N1CCN(C2CN(C(=O)c3sc4c(C(F)(F)F)c(F)ccc4c3Cl)C2)CC1 [Cpd 697]
253	0.041	69						O=C(c1cscn1)N1CCN(C2CN(C(=O)c3sc4cc(Cl)ccc4c3C(F)(F)F)C2)CC1 [Cpd 699]
547		72			0.006			COc1c(C(=O)N2CC(N3CCN(C(=O)c4cscn4)CC3)C2)sc2cc(C(F)(F)F)ccc12 [Cpd 700]
475	0.008	77						Cn1cc(I)c2ccc(C(=O)N3CC(N4CCN(C(=O)c5nccs5)CC4)C3)cc21 [Cpd 701]
848		303	0.207					O=C(Nc1ccc(C(=O)N2CC(N3CCN(C(=O)c4nccs4)CC3)C2)cc1)c1cc(F)ccc1Cl [Cpd 702]
346	0.05	88						O=C(c1ccns1)N1CC(N2CCN(C(=O)c3cc4cc(C(F)(F)F)ccc4s3)CC2)C1 [Cpd 703, 1-[1-(Isothiazol-5-ylcarbonyl)azetidin-3-yl]-4-{[5-(trifluoromethyl)-1-benzothiophen-2-yl]carbonyl}piperazine]
487	0.012	99						Cc1c(C(=O)N2CCN(C3CN(C(=O)c4cscn4)C3)CC2)sc2cc(C(F)(F)F)ccc12 [Cpd 705]
326	0.04	140						O=C(c1cscn1)N1CC(N2CCN(C(=O)c3cc4cc(C(F)(F)F)ccc4s3)CC2)C1 [Cpd 716, 1-[1-(1,3-Thiazol-4-ylcarbonyl)azetidin-3-yl]-4-{[5-(trifluoromethyl)-1-benzothiophen-2-yl]carbonyl}piperazine]
499		273				0.067		O=C(c1ccccc1)N1CCc2cc(C(=O)N3CC(N4CCN(C(=O)c5nccs5)CC4)C3)ccc2C1 [Cpd 736]
182	0.2	298						O=C(c1cc[nH]c1)N1CC(N2CCN(C(=O)c3cc4cc(C(F)(F)F)ccc4s3)CC2)C1 [Cpd 741, 1-[1-(1H-Pyrrol-3-ylcarbonyl)azetidin-3-yl]-4-{[5-(trifluoromethyl)-1-benzothiophen-2-yl]carbonyl}piperazine]
173	0.515	434						O=C(c1csnn1)N1CC(N2CCN(C(=O)c3cc4cc(C(F)(F)F)ccc4s3)CC2)C1 [Cpd 753]
465	0.05	7						O=C(c1ccccc1)N1CCN(C2CN(C(=O)c3ccc(Cc4ccc(C(F)(F)F)cc4)cc3)C2)CC1 [Cpd 771]

2-AG accumulation, % of vehicle control at 1 µM [1] [%]	Kd [2, 4] [µM]	IC50 [3] [nM]	Kd [2, 5] [µM]	Kd ([2]; ThermoFluor, compound concentration measured by qNMR, read-out: MGL mutant ThermoFluor qKd (μM) (using qNMR conc.)) [µM]	Kd [2, 6] [µM]	Kd [2, 7] [µM]	2-AG accumulation, % of vehicle control at 0.1 µM ([1]; compound 0.1 μM, read-out: Rat Brain 2AG % VehCntrl (%) @ 0.1 μM) [%]	Structure (SMILES)
499	0.01	< 5					232	O=C(c1ccc(Oc2cccc(Cl)c2)c(F)c1)N1CC(N2CCN(C(=O)c3nccs3)CC2)C1 [Cpd 875]
475	0.1	< 5						O=C(c1ccc(Oc2ccc(Br)cn2)cc1)N1CC(N2CCN(C(=O)c3nccs3)CC2)C1 [Cpd 877]
288	0.088	< 5						O=C(c1ccc(Oc2cc(C(F)(F)F)ccc2F)nc1)N1CC(N2CCN(C(=O)c3nccs3)CC2)C1 [Cpd 878]
847	0.006	< 5						O=C(c1ccc2c(c1)CCN2Cc1cccc(C(F)(F)F)c1)N1CC(N2CCN(C(=O)c3nccs3)CC2)C1 [Cpd 881]
697	0.012	< 5						O=C(c1ccc2c(c1)CCN2Cc1ccc(C(F)(F)F)cc1)N1CC(N2CCN(C(=O)c3nccs3)CC2)C1 [Cpd 882]
767		< 5				0.059		O=C(c1ccc2c(c1)CCN(c1ccccc1)C2)N1CC(N2CCN(C(=O)c3nccs3)CC2)C1 [Cpd 883]
722		< 5			0.001			O=C(c1ccc2c(c1)CCN2c1ccc(F)cc1)N1CC(N2CCN(C(=O)c3nccs3)CC2)C1 [Cpd 885, 1-(4-Fluorophenyl)-5-({3-[4-(1,3-thiazol-2-ylcarbonyl)piperazin-1-yl]azetidin-1-yl}carbonyl)-2,3-dihydro-1H-indole]
270	0.009	< 5						CCC(C)(C)c1ccc(C(=O)N2CC(N3CCN(C(=O)c4nccs4)CC3)C2)cc1 [Cpd 887]
683	0.002	< 5						O=C(c1ccc(C2CCCCC2)cc1)N1CC(N2CCN(C(=O)c3nccs3)CC2)C1 [Cpd 889]
823	0.001	< 5						O=C(c1nccs1)N1CCN(C2CN(C(=O)c3sc4ccc5ccccc5c4c3Cl)C2)CC1 [Cpd 890]
422	0.008	< 5						CC(C)Cc1ccc(C(=O)N2CC(N3CCN(C(=O)c4nccs4)CC3)C2)cc1 [Cpd 891]
948	0.007	< 5						CCCCCCCc1ccc(C(=O)N2CC(N3CCN(C(=O)c4nccs4)CC3)C2)cc1 [Cpd 892]
626	0.005	< 5						CCCCCc1ccc(C(=O)N2CC(N3CCN(C(=O)c4nccs4)CC3)C2)cc1 [Cpd 893]
534	0.006	< 5						CCCCc1ccc(C(=O)N2CC(N3CCN(C(=O)c4nccs4)CC3)C2)cc1 [Cpd 894]
648	0.008	< 5						O=C(c1nccs1)N1CCN(C2CN(C(=O)c3sc4ccc(Cl)cc4c3C(F)(F)F)C2)CC1 [Cpd 896, 1-(1-{[5-Chloro-3-(trifluoromethyl)-1-benzothiophen-2-yl]carbonyl}azetidin-3-yl)-4-(1,3-thiazol-2-ylcarbonyl)piperazine]
520		< 5				0.009		Cc1c(C(=O)N2CC(N3CCN(C(=O)c4cscn4)CC3)C2)sc2ccc(C(F)(F)F)cc12 [Cpd 898]
